Laboratory results reported in publication PMC6957262 (Bioorganic & medicinal chemistry letters, 2015).

How the values were obtained:
[1] = target: T1, hTRPV1 (Homo sapiens, UniProt Q8NER1); assay: hTRPV1 antagonism of capsaicin; format: cell-based; details: for fold loss in antagonistic potency compared to the corresponding parent (1 or 2): less potent than parent
[2] = target: T1, hTRPV1; assay: hTRPV1 antagonism of pH activation; format: cell-based; details: heat (45 °C), NADA

T1 sequence (Q8NER1 whole entry): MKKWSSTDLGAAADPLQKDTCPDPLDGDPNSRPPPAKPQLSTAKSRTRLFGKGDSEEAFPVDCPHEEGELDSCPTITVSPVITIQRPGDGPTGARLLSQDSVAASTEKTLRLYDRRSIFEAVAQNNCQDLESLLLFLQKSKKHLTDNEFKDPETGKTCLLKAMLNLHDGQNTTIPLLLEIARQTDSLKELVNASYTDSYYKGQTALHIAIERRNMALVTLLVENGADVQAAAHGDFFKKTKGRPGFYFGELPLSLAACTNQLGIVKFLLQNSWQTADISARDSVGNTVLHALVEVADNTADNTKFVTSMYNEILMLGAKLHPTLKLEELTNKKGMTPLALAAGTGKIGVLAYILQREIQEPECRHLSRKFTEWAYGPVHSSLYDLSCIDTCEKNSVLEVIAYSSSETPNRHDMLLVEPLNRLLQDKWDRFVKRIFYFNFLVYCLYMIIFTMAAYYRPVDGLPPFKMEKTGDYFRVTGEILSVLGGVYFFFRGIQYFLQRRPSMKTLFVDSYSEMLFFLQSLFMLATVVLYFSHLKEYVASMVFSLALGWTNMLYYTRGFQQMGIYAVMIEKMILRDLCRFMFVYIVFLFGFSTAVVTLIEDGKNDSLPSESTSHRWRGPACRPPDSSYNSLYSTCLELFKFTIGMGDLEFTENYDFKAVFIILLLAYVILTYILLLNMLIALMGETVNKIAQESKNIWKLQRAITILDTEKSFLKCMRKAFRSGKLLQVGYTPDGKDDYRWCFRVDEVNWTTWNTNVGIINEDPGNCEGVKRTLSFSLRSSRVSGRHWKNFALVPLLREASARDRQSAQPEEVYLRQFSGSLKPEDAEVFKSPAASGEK

| fold loss in antagonistic potency compared to the corresponding parent (1 or 2) [1] | fold weaker potency toward the other activators compared to 1 [2] | fold more potent than parent 1 ([1]; improvement over parent 1) | Structure (SMILES) |
| --- | --- | --- | --- |
| 5 fold | – | – | CCC(C(=O)NCc1ccc(C(F)(F)F)nc1N1CCC(C)CC1)c1ccc(NS(C)(=O)=O)c(F)c1 (stereo not drawn) [Compound 21] |
| > 100 fold | – | – | CC1CCN(c2nc(C(F)(F)F)ccc2CNC(=O)C(c2ccc(NS(C)(=O)=O)c(F)c2)C2CCCC2)CC1 (stereo not drawn) [Compound 22] |
| > 100 fold | – | – | CS(=O)(=O)Nc1ccc(C(C(=O)NCc2ccc(C(F)(F)F)nc2SC2CCCCC2)C2CCCC2)cc1F (stereo not drawn) [Compound 23] |
| > 100 fold | – | – | CC1CCN(c2nc(C(F)(F)F)ccc2CNC(=O)C(c2ccc(NS(C)(=O)=O)c(F)c2)C2CCCCC2)CC1 (stereo not drawn) [Compound 24] |
| > 100 fold | – | – | CS(=O)(=O)Nc1ccc(C(C(=O)NCc2ccc(C(F)(F)F)nc2SC2CCCCC2)C2CCCCC2)cc1F (stereo not drawn) [Compound 25] |
| > 140 fold | – | – | Cc1ccccc1C(C(=O)NCc1ccc(C(F)(F)F)nc1N1CCC(C)CC1)c1ccc(NS(C)(=O)=O)c(F)c1 (stereo not drawn) [Compound 32] |
| > 140 fold | – | – | Cc1ccccc1C(C(=O)NCc1ccc(C(F)(F)F)nc1SC1CCCCC1)c1ccc(NS(C)(=O)=O)c(F)c1 (stereo not drawn) [Compound 33] |
| – | 5–15 fold | 3 fold | Cc1cccc(C(C(=O)NCc2ccc(C(F)(F)F)nc2N2CCC(C)CC2)c2ccc(NS(C)(=O)=O)c(F)c2)c1 (stereo not drawn) [Compound 34] |
| 60 fold | – | – | Cc1cccc(C(C(=O)NCc2ccc(C(F)(F)F)nc2SC2CCCCC2)c2ccc(NS(C)(=O)=O)c(F)c2)c1 (stereo not drawn) [Compound 35] |
| 3–8 fold | – | – | Cc1ccc(C(C(=O)NCc2ccc(C(F)(F)F)nc2N2CCC(C)CC2)c2ccc(NS(C)(=O)=O)c(F)c2)cc1 (stereo not drawn) [Compound 36] |
| 3–8 fold | – | – | Cc1ccc(C(C(=O)NCc2ccc(C(F)(F)F)nc2SC2CCCCC2)c2ccc(NS(C)(=O)=O)c(F)c2)cc1 (stereo not drawn) [Compound 37] |
